Experimental data reported in the supplement of paper PMC10307832.

Legend:
Assay in all cases: relative viability (nuclei count vs DMSO), 5 days (fraction); higher = more cells survive
LCLC-103H = test system: LCLC-103H
In short: (§1)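 Medians of duplicate plates are given as relative viability. That measure is the nuclei count in treated wells divided by the count in vehicle wells. Counts were taken on 4× images of lung cancer cell lines in 1536-well plates, 5 days after pin-tool dosing the day after seeding with one drug alone or a fixed anchor-drug dose plus five library-drug doses (not always all listed) in √10 steps.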

NCI-H727 = test system: NCI-H727
In short: as §1

EKVX = test system: EKVX
In short: as §1

BEN = test system: BEN
In short: as §1

NCI-H2170 = test system: NCI-H2170
In short: as §1

HCC-827 = test system: HCC-827
In short: as §1

NCI-H1666 = test system: NCI-H1666
In short: as §1

LOU-NH91 = test system: LOU-NH91
In short: as §1

NCI-H1944 = test system: NCI-H1944
In short: as §1

NCI-H1355 = test system: NCI-H1355
In short: as §1

HOP-62 = test system: HOP-62
In short: as §1

NCI-H661 = test system: NCI-H661
In short: as §1

SK-MES-1 = test system: SK-MES-1
In short: as §1

LXF-289 = test system: LXF-289
In short: as §1

PC-14 = test system: PC-14
In short: as §1

NCI-H647 = test system: NCI-H647
In short: as §1

NCI-H1993 = test system: NCI-H1993
In short: as §1

NCI-H441 = test system: NCI-H441
In short: as §1

NCI-H2126 = test system: NCI-H2126
In short: as §1

LK-2 = test system: LK-2
In short: as §1

RERF-LC-KJ = test system: RERF-LC-KJ
In short: as §1

NCI-H1437 = test system: NCI-H1437
In short: as §1

Structure (SMILES): Cc1csc(=NC2CCCCC2)n1/N=C/c1ccc(O)c(O)c1O [MIM1] + Cc1nc(NC(=O)N2CCC[C@H]2C(N)=O)sc1-c1ccnc(C(C)(C)C(F)(F)F)c1 [Alpelisib] (partner 2 µM)
- relative viability (LCLC-103H; first compound 0.2 µM): 0.9
- relative viability (LCLC-103H; first compound 0.6325 µM): 1.08
- relative viability (LCLC-103H; first compound 2 µM): 1.08
- relative viability (LCLC-103H; first compound 6.325 µM): 0.913
- relative viability (LCLC-103H; first compound 20 µM): 0.928
- relative viability (NCI-H727; first compound 0.2 µM): 0.595
- relative viability (NCI-H727; first compound 0.6325 µM): 0.614
- relative viability (NCI-H727; first compound 2 µM): 0.534
- relative viability (NCI-H727; first compound 6.325 µM): 0.482
- relative viability (NCI-H727; first compound 20 µM): 0.397
- relative viability (EKVX; first compound 0.2 µM): 0.924
- relative viability (EKVX; first compound 0.6325 µM): 0.91
- relative viability (EKVX; first compound 2 µM): 0.934
- relative viability (EKVX; first compound 6.325 µM): 0.575
- relative viability (EKVX; first compound 20 µM): 0.615
- relative viability (BEN; first compound 0.2 µM): 1.13
- relative viability (BEN; first compound 0.6325 µM): 0.99
- relative viability (BEN; first compound 2 µM): 1.21
- relative viability (BEN; first compound 6.325 µM): 1.01
- relative viability (BEN; first compound 20 µM): 0.445
- relative viability (NCI-H2170; first compound 0.2 µM): 0.769
- relative viability (NCI-H2170; first compound 0.6325 µM): 0.814
- relative viability (NCI-H2170; first compound 2 µM): 0.812
- relative viability (NCI-H2170; first compound 6.325 µM): 0.651
- relative viability (NCI-H2170; first compound 20 µM): 0.337
- relative viability (HCC-827; first compound 0.2 µM): 0.953
- relative viability (HCC-827; first compound 0.6325 µM): 0.986
- relative viability (HCC-827; first compound 2 µM): 0.913
- relative viability (HCC-827; first compound 6.325 µM): 0.441
- relative viability (HCC-827; first compound 20 µM): 0.34
- relative viability (NCI-H1666; first compound 0.2 µM): 0.827
- relative viability (NCI-H1666; first compound 0.6325 µM): 0.877
- relative viability (NCI-H1666; first compound 2 µM): 0.815
- relative viability (NCI-H1666; first compound 6.325 µM): 0.659
- relative viability (NCI-H1666; first compound 20 µM): 0.405
- relative viability (LOU-NH91; first compound 0.2 µM): 0.704
- relative viability (LOU-NH91; first compound 0.6325 µM): 0.779
- relative viability (LOU-NH91; first compound 2 µM): 0.591
- relative viability (LOU-NH91; first compound 6.325 µM): 0.641
- relative viability (LOU-NH91; first compound 20 µM): 0.561
- relative viability (NCI-H1944; first compound 0.2 µM): 0.831
- relative viability (NCI-H1944; first compound 0.6325 µM): 0.849
- relative viability (NCI-H1944; first compound 2 µM): 0.671
- relative viability (NCI-H1944; first compound 6.325 µM): 0.733
- relative viability (NCI-H1944; first compound 20 µM): 0.882
- relative viability (NCI-H1355; first compound 0.2 µM): 0.89
- relative viability (NCI-H1355; first compound 0.6325 µM): 0.805
- relative viability (NCI-H1355; first compound 2 µM): 0.924
- relative viability (NCI-H1355; first compound 6.325 µM): 0.672
- relative viability (NCI-H1355; first compound 20 µM): 0.359
- relative viability (HOP-62; first compound 0.2 µM): 0.785
- relative viability (HOP-62; first compound 0.6325 µM): 0.958
- relative viability (HOP-62; first compound 2 µM): 0.608
- relative viability (HOP-62; first compound 6.325 µM): 1.03
- relative viability (HOP-62; first compound 20 µM): 0.24
- relative viability (NCI-H661; first compound 0.2 µM): 0.728
- relative viability (NCI-H661; first compound 0.6325 µM): 0.847
- relative viability (NCI-H661; first compound 2 µM): 0.655
- relative viability (NCI-H661; first compound 6.325 µM): 0.472
- relative viability (NCI-H661; first compound 20 µM): 0.305
- relative viability (SK-MES-1; first compound 0.2 µM): 0.913
- relative viability (SK-MES-1; first compound 0.6325 µM): 0.774
- relative viability (SK-MES-1; first compound 2 µM): 0.813
- relative viability (SK-MES-1; first compound 6.325 µM): 0.8
- relative viability (SK-MES-1; first compound 20 µM): 0.725
- relative viability (LXF-289; first compound 0.2 µM): 1.07
- relative viability (LXF-289; first compound 0.6325 µM): 0.998
- relative viability (LXF-289; first compound 2 µM): 1.02
- relative viability (LXF-289; first compound 6.325 µM): 0.82
- relative viability (LXF-289; first compound 20 µM): 0.609
- relative viability (PC-14; first compound 0.2 µM): 0.886
- relative viability (PC-14; first compound 0.6325 µM): 0.92
- relative viability (PC-14; first compound 2 µM): 0.847
- relative viability (PC-14; first compound 6.325 µM): 0.878
- relative viability (PC-14; first compound 20 µM): 0.383
- relative viability (NCI-H647; first compound 0.2 µM): 1.23
- relative viability (NCI-H647; first compound 0.6325 µM): 1.14
- relative viability (NCI-H647; first compound 2 µM): 1.12
- relative viability (NCI-H647; first compound 6.325 µM): 0.991
- relative viability (NCI-H647; first compound 20 µM): 0.213
- relative viability (NCI-H1993; first compound 0.2 µM): 0.715
- relative viability (NCI-H1993; first compound 0.6325 µM): 0.619
- relative viability (NCI-H1993; first compound 2 µM): 0.758
- relative viability (NCI-H1993; first compound 6.325 µM): 0.724
- relative viability (NCI-H1993; first compound 20 µM): 0.55
- relative viability (NCI-H441; first compound 0.2 µM): 0.75
- relative viability (NCI-H441; first compound 0.6325 µM): 0.63
- relative viability (NCI-H441; first compound 2 µM): 0.655
- relative viability (NCI-H441; first compound 6.325 µM): 0.594
- relative viability (NCI-H441; first compound 20 µM): 0.187
- relative viability (NCI-H2126; first compound 0.2 µM): 0.708
- relative viability (NCI-H2126; first compound 0.6325 µM): 0.756
- relative viability (NCI-H2126; first compound 2 µM): 0.776
- relative viability (NCI-H2126; first compound 6.325 µM): 0.758
- relative viability (NCI-H2126; first compound 20 µM): 0.727
- relative viability (LK-2; first compound 0.2 µM): 0.958
- relative viability (LK-2; first compound 0.6325 µM): 1.04
- relative viability (LK-2; first compound 6.325 µM): 0.963
- relative viability (LK-2; first compound 20 µM): 0.374
- relative viability (RERF-LC-KJ; first compound 0.2 µM): 0.802
- relative viability (RERF-LC-KJ; first compound 0.6325 µM): 0.801
- relative viability (RERF-LC-KJ; first compound 2 µM): 0.704
- relative viability (RERF-LC-KJ; first compound 6.325 µM): 0.668
- relative viability (RERF-LC-KJ; first compound 20 µM): 0.213
- relative viability (NCI-H1437; first compound 0.2 µM): 0.843
- relative viability (NCI-H1437; first compound 0.6325 µM): 0.935
- relative viability (NCI-H1437; first compound 2 µM): 0.959
- relative viability (NCI-H1437; first compound 6.325 µM): 0.592
- relative viability (NCI-H1437; first compound 20 µM): 0.289
